Results reported in ChEMBL document CHEMBL1150884, “Antifungal amide from leaves of Piper hispidum” (1998).

Tested on: Cladosporium sphaerospermum
Test: Antifungal activity against Cladosporium sphaerospermum after 72 hrs in dark by TLC assay
Type: functional

MIC: 8 µg
SMILES: O=C(/C=C\C=C/CCc1ccc2c(c1)OCO2)N1CCCC1
